Data: ChEMBL document CHEMBL3865823, “Ameliorative effects of amide derivatives of 1,3,4-thiadiazoles on scopolamine induced cognitive dysfunction” (Eur J Med Chem, 2016)

Tests used:
Mus musculus [1] = experiment: Neuroprotective activity against scopolamine-induced oxidative damage in albino mouse assessed as nitrite level in plasma at 0.5 mg/kg, ip administered 5 mins post scopolamine-challenge by Greiss assay (reference value: 483.5 +/- 27.1 ug/ml); type: functional
Mus musculus [2] = experiment: Neuroprotective activity against scopolamine-induced oxidative damage in albino mouse assessed as glutathione reductase level in brain measured per mg of protein at 0.5 mg/kg, ip administered 5 mins post scopolamine-challenge by Ellamns assay (reference value: 0.008 +/- 0.001 umol); type: functional
Mus musculus [3] = experiment: Neuroprotective activity against scopolamine-induced oxidative damage in albino mouse assessed as superoxide dismutase level in brain at 0.5 mg/kg, ip administered 5 mins post scopolamine-challenge measured at every 30 to 60 secs interval for 2 mins by NBT reduction assay (reference value: 0.17 +/- 0.03 U/mg); type: functional
Mus musculus [4] = experiment: Neuroprotective activity against scopolamine-induced oxidative damage in albino mouse assessed as lipid peroxidation in brain by measuring MDA level per mg protein at 0.5 mg/kg, ip administered 5 mins post scopolamine-challenge by TBARS assay (reference value: 2.73 +/- 0.36 mol); type: functional
Mus musculus [5] = experiment: Inhibition of scopolamine-induced increase in AchE level in albino mouse assessed as AChE level in brain at 0.5 mg/kg, ip administered 5 mins post scopolamine-challenge using acetlythiocholine iodidie as substrate by Ellman's method (reference value: 0.011 +/- 0.0022 umol/min/mg); type: functional
Mus musculus [6] = experiment: Antiamnesic activity against scopolamine-induced memory loss in albino mouse assessed as time spent in target quadrant at 0.5 mg/kg, ip administered 5 mins post scopolamine-challenge and 35 mins prior to training measured on day 5 by Morris water maze test (reference value: 4 +/- 1.15 sec); type: functional
Mus musculus [7] = experiment: Antiamnesic activity against scopolamine-induced memory loss in albino mouse assessed as escape latency time at 0.5 mg/kg, ip administered 5 mins post scopolamine-challenge and 35 mins prior to training measured on day 5 by Morris water maze test (reference value: 84.92 +/- 1.64 sec); type: functional
Mus musculus [8] = experiment: Antiamnesic activity against scopolamine-induced memory loss in albino mouse assessed as escape latency time at 0.5 mg/kg, ip administered 5 mins post scopolamine-challenge and 35 mins prior to training measured on day 4 by Morris water maze test (reference value: 87.17 +/- 1.03 sec); type: functional
Mus musculus [9] = experiment: Antiamnesic activity against scopolamine-induced memory loss in albino mouse assessed as escape latency time at 0.5 mg/kg, ip administered 5 mins post scopolamine-challenge and 35 mins prior to training measured on day 3 by Morris water maze test (reference value: 88.33 +/- 0.95 sec); type: functional
Mus musculus [10] = experiment: Antiamnesic activity against scopolamine-induced memory loss in albino mouse assessed as escape latency time at 0.5 mg/kg, ip administered 5 mins post scopolamine-challenge and 35 mins prior to training measured on day 2 by Morris water maze test (reference value: 89.41 +/- 0.39 sec); type: functional
Acetylcholinesterase [11] = molecular target: T1, Acetylcholinesterase (Mus musculus, UniProt P21836); experiment: Competitive inhibition of albino mouse brain AChE using acetylthiocholine iodide as substrate measured up to 2 mins by Ellmans method
T1 sequence (P21836 whole entry): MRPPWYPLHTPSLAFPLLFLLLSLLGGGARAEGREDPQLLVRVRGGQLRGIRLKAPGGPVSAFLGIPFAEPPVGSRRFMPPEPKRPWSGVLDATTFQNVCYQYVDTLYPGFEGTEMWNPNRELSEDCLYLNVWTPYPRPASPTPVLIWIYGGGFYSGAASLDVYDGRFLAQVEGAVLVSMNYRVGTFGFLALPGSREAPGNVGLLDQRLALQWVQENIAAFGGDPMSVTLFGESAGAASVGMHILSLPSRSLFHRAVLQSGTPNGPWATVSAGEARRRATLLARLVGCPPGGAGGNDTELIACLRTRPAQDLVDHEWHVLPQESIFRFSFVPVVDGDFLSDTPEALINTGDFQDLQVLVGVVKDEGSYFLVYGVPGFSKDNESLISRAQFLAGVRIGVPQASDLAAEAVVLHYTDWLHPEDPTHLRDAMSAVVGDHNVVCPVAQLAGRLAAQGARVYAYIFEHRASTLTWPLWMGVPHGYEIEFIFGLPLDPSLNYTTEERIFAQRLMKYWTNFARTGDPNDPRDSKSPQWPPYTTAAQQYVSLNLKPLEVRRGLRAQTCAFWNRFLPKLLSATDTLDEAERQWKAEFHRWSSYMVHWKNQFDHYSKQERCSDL

Mus musculus [12] = experiment: Antiamnesic activity against scopolamine-induced memory loss in albino mouse assessed as escape latency time at 0.5 mg/kg, ip administered 5 mins post scopolamine-challenge and 35 mins prior to training measured on day 1 by Morris water maze test (reference value: 89.67 +/- 0.23 sec); type: functional
Mus musculus [13] = experiment: Antiamnesic activity against scopolamine-induced memory loss in albino mouse assessed as latency to reach shock free zone at 0.5 mg/kg, ip administered 5 mins post scopolamine-challenge and 35 mins prior to training by passive avoidance test (reference value: 53.25 +/- 1.37 sec); type: functional
Mus musculus [14] = experiment: Antiamnesic activity against scopolamine-induced memory loss in albino mouse assessed as basal latency to reach shock free zone at 0.5 mg/kg, ip administered 5 mins post scopolamine-challengen and 35 mins prior to training by passive avoidance test (reference value: 40.25 +/- 2.84 sec); type: functional
Acetylcholinesterase [15] = molecular target: T1, Acetylcholinesterase; experiment: Inhibition of albino mouse brain AChE using acetylthiocholine iodide as substrate measured for 2 mins by Ellmans method; type: tissue-based
Mus musculus [16] = experiment: Neuroprotective activity against scopolamine-induced oxidative damage in albino mouse assessed as catalase activity by measuring H2O2 decomposition per mg of protein at 0.5 mg/kg, ip administered 5 mins post scopolamine-challenge (reference value: 1.37 +/- 0.25 micromol/min); type: functional
Mus musculus [17] = experiment: Antiamnesic activity against scopolamine-induced memory loss in albino mouse assessed as number of mistakes at 0.5 mg/kg, ip administered 5 mins post scopolamine-challenge and 35 mins prior to training by passive avoidance test (reference value: 12.25 +/- 0.47); type: functional
Acetylcholinesterase [18] = molecular target: T1, Acetylcholinesterase; experiment: Uncompetitive inhibition of albino mouse brain AChE using acetylthiocholine iodide as substrate measured up to 2 mins by Ellmans method

For `O=C(Nc1nnc(-c2ccccc2Cl)s1)c1cc(C(F)(F)F)cc(C(F)(F)F)c1`, the Activity (Mus musculus [1]) was 291.8 µg/mL, the Activity (Mus musculus [2]) was 0.016 µmol and the Activity (Mus musculus [3]) was 5.87 U/mg. For the same compound, the Activity (Mus musculus [4]) was 0.73 nmol, the Activity (Mus musculus [5]) was 0.002 µmol/min/mg and the Time (Mus musculus [6]) was 25.33 s. For the same compound, the Time (Mus musculus [7]) was 21.67 s, the Time (Mus musculus [8]) was 52.92 s and the Time (Mus musculus [9]) was 73.75 s. It also gave a Time (Mus musculus [10]) of 84.25 s, a Ki (Acetylcholinesterase [11]) of 0.97 µM and a Time (Mus musculus [12]) of 89.75 s. The Time (Mus musculus [13]) was 4.5 s, the Time (Mus musculus [14]) was 30.75 s and the IC50 (Acetylcholinesterase [15]) was 2.74 µM. The Activity (Mus musculus [16]) was 2.79 µmol/min and the Activity (Mus musculus [17]) was 3.
For `O=C(Nc1nnc(-c2ccccc2)s1)c1cccc(CCl)c1`, the Activity (Mus musculus [1]) was 268.5 µg/mL, the Activity (Mus musculus [2]) was 0.012 µmol and the Activity (Mus musculus [3]) was 5.95 U/mg. It also gave an Activity (Mus musculus [4]) of 0.67 nmol, an Activity (Mus musculus [5]) of 0.004 µmol/min/mg and a Ki (Acetylcholinesterase [18]) of 0.85 µM. For the same compound, the IC50 (Acetylcholinesterase [15]) was 4.09 µM and the Activity (Mus musculus [16]) was 2.67 µmol/min.
`Cc1ccc(-c2nnc(NC(=O)c3cc(C(F)(F)F)cc(C(F)(F)F)c3)s2)cc1` was tested, and the Activity (Mus musculus [1]) was 306.5 µg/mL, the Activity (Mus musculus [2]) was 0.012 µmol and the Activity (Mus musculus [3]) was 5.23 U/mg. The Activity (Mus musculus [4]) was 1.09 nmol, the Activity (Mus musculus [5]) was 0.003 µmol/min/mg and the Ki (Acetylcholinesterase [18]) was 3.77 µM. The IC50 (Acetylcholinesterase [15]) was 7.09 µM and the Activity (Mus musculus [16]) was 2.69 µmol/min.
Compound `CC(=O)Oc1cccc(C(=O)Nc2nnc(-c3ccccc3Cl)s2)c1` has an Activity (Mus musculus [1]) of 265.5 µg/mL, an Activity (Mus musculus [2]) of 0.013 µmol and an Activity (Mus musculus [3]) of 5.29 U/mg. For the same compound, the Activity (Mus musculus [4]) was 0.76 nmol, the Activity (Mus musculus [5]) was 0.004 µmol/min/mg and the Time (Mus musculus [6]) was 23.33 s. It also gave a Time (Mus musculus [7]) of 23.92 s, a Time (Mus musculus [8]) of 46.83 s and a Time (Mus musculus [9]) of 62.33 s. For the same compound, the Time (Mus musculus [10]) was 77.83 s, the Time (Mus musculus [12]) was 88.42 s and the Time (Mus musculus [13]) was 4.5 s. For the same compound, the Time (Mus musculus [14]) was 36.33 s, the Ki (Acetylcholinesterase [18]) was 0.64 µM and the IC50 (Acetylcholinesterase [15]) was 3.03 µM. It also gave an Activity (Mus musculus [16]) of 2.66 µmol/min and an Activity (Mus musculus [17]) of 4.25.
`O=C(Nc1nnc(-c2ccccc2Cl)s1)c1cccc(CCl)c1` showed an Activity (Mus musculus [1]) of 308.8 µg/mL, an Activity (Mus musculus [2]) of 0.01 µmol and an Activity (Mus musculus [3]) of 5.95 U/mg. It also gave an Activity (Mus musculus [4]) of 0.76 nmol, an Activity (Mus musculus [5]) of 0.003 µmol/min/mg and a Time (Mus musculus [6]) of 24.33 s. It also gave a Time (Mus musculus [7]) of 22.5 s, a Time (Mus musculus [8]) of 44.75 s and a Time (Mus musculus [9]) of 62.92 s. It also gave a Time (Mus musculus [10]) of 76.08 s, a Time (Mus musculus [12]) of 85.92 s and a Time (Mus musculus [13]) of 5.25 s. It also gave a Time (Mus musculus [14]) of 34.58 s, a Ki (Acetylcholinesterase [18]) of 0.66 µM and an IC50 (Acetylcholinesterase [15]) of 3 µM. For the same compound, the Activity (Mus musculus [16]) was 1.9 µmol/min and the Activity (Mus musculus [17]) was 4.5.
Compound `CC(CC(=O)Nc1nnc(Cc2ccccc2)s1)CC(C)(C)C` (stereo unspecified) has a Ki (Acetylcholinesterase [18]) of 3.99 µM and an IC50 (Acetylcholinesterase [15]) of 27.1 µM.
With `Cc1ccc(-c2nnc(NC(=O)c3cccc(CCl)c3)s2)cc1` the Ki (Acetylcholinesterase [11]) was 3.84 µM and the IC50 (Acetylcholinesterase [15]) was 12.6 µM.
`O=C(Nc1nnc(Cc2ccccc2)s1)c1cccc(CCl)c1` showed an Activity (Mus musculus [1]) of 324.8 µg/mL, an Activity (Mus musculus [2]) of 0.01 µmol and an Activity (Mus musculus [3]) of 5.26 U/mg. The Activity (Mus musculus [4]) was 0.98 nmol, the Activity (Mus musculus [5]) was 0.003 µmol/min/mg and the Ki (Acetylcholinesterase [18]) was 5.06 µM. The IC50 (Acetylcholinesterase [15]) was 20.3 µM and the Activity (Mus musculus [16]) was 1.74 µmol/min.
`CC(CC(=O)Nc1nnc(-c2cccc(Cl)c2)s1)CC(C)(C)C` (stereo unspecified) gave a Ki (Acetylcholinesterase [18]) of 2.67 µM and an IC50 (Acetylcholinesterase [15]) of 13.7 µM.
`CC(=O)Oc1cccc(C(=O)Nc2nnc(-c3ccccc3)s2)c1` gave a Ki (Acetylcholinesterase [11]) of 0.91 µM and an IC50 (Acetylcholinesterase [15]) of 3.78 µM.
With `CC(=O)Oc1cccc(C(=O)Nc2nnc(Cc3ccccc3)s2)c1` the Ki (Acetylcholinesterase [18]) was 5.67 µM and the IC50 (Acetylcholinesterase [15]) was 11.6 µM.
Compound `Cc1ccc(-c2nnc(NC(=O)CC(C)CC(C)(C)C)s2)cc1` (stereo unspecified) has a Ki (Acetylcholinesterase [18]) of 8.36 µM and an IC50 (Acetylcholinesterase [15]) of 23.7 µM.
`CC(=O)Oc1cccc(C(=O)Nc2nnc(-c3ccc(C)cc3)s2)c1` gave a Ki (Acetylcholinesterase [18]) of 3.77 µM and an IC50 (Acetylcholinesterase [15]) of 10.8 µM.
In the case of `CC(CC(=O)Nc1nnc(-c2ccccc2)s1)CC(C)(C)C` (stereo unspecified), the Ki (Acetylcholinesterase [18]) is reported as 7.6 µM and the IC50 (Acetylcholinesterase [15]) is reported as 23.7 µM.
Work on `CCN(C)C(=O)Oc1cccc([C@H](C)N(C)C)c1` [RIVASTIGMINE] yielded an Activity (Mus musculus [1]) of 418.2 µg/mL, an Activity (Mus musculus [2]) of 0.014 µmol and an Activity (Mus musculus [3]) of 4.24 U/mg. It also gave an Activity (Mus musculus [4]) of 2.34 nmol, an Activity (Mus musculus [5]) of 0.005 µmol/min/mg and a Time (Mus musculus [6]) of 15 s. It also gave a Time (Mus musculus [7]) of 34.08 s, a Time (Mus musculus [8]) of 54.58 s and a Time (Mus musculus [9]) of 72.92 s. It also gave a Time (Mus musculus [10]) of 83.83 s, a Time (Mus musculus [12]) of 89.75 s and a Time (Mus musculus [13]) of 12.25 s. For the same compound, the Time (Mus musculus [14]) was 37.08 s, the Activity (Mus musculus [16]) was 1.88 µmol/min and the Activity (Mus musculus [17]) was 8.75.
